Source: patent publication US8389481B2, “Glutamate-enhanced cell-penetrating peptides and methods of using same” (University of Medicine and Dentistry of New Jersey, priority 2008, dated 2013)
Several values for one entry are separate records, joined by “and”; a condition that tells them apart may be missing. Identical values can stand only once. Primed or numbered codes have the meaning given here. Ends that are not written are not given here. Peptide text beside a SMILES is read from it. * marks the point of attachment. {P353} = cell-penetrating peptide 353 (Glu-Oct6) attached at PNA N-terminus; {Lys-FITC} = C-terminal lysine carrying fluorescein (FITC); 5FAM = O=C1OC2(c3ccc(O)cc3Oc3cc(O)ccc32)c2ccc(C(=O)*)cc21; FITC′ = not defined here

Assays:
Format in all cases: cell-based
DU-145 cells [1] = test: Peptide uptake by live cells, flow cytometry (geometric MFI); conditions: for uptake of carboxydansyl peptide on coincubation with peptide 353: 300 nM each, 1 hr (FIG. 1D); for geometric MFI compared among the peptides (FIG. 1A): 500 nM peptides, 4 hrs incubation; for effect of NaN3 on uptake: 0.1 or 1% NaN3, 300 nM peptide; for average geometric MFI: 300 nM peptides, 4° C., 4 hours (FIG. 2)
Description: (§1) Uptake of peptides by live cells was compared by flow cytometry, using the exclusion dye 7-amino actinomycin D (7-AAD) to exclude dead cells from analyses.
(§2) Cells: DU-145 and LNCaP cells were the gift of Dr. James Turkson (University of South Florida, Tampa, Fla.). DU-145 cells were grown in DMEM/Ham's F12 (Invitrogen, Carlsbad, Calif.) plus 10% newborn bovine serum (Hyclone, Logan, Utah). LNCaP cells were maintained in RPMI-1640 (Invitrogen) plus fetal bovine serum (Hyclone). Cell viabilities were determined using fluorescein diacetate (Sigma Chemical Co., St. Louis, Mo.) and a Universal RIII fluorescence microscope (Zeiss, Jena, Germany).
(§3) Uptake and Fluorescence Quantification Studies: Peptides were added to subconfluent cultures of cells at times, temperatures, and concentrations indicated in experiments. Concentrations ranging from 0 to 3000 nM were assayed. Cells were analyzed in the presence of […] 7-AAD (eBioscience, San Digeo Calif.) to gate on live events. Fluorescence was quantified, after cells were harvested, using a FACScan flow cytometer. At least 10,000 events were acquired using CellQuest Pro software and an Apple Macintosh G4 dual coprocessor computer running OS X 10.3.9. Fluorescence detectors on the instrument were standardized prior to each acquisition run, so that fluorescence intensities from different days could be compared. Because the FACScan employs logarithmic amplifiers on the fluorescence detectors, the more accurate parameter with which to compare fluorescence intensities for different samples is the geometric mean fluorescence intensity (geometric MFI). In some studies, fixed cells (4% paraformaldehyde/DPBS) were analyzed on an Amnis ImageStream 200 imaging cytometer using IDEAS 3.0 software.

DU-145 cells [2] = test: Cell death determined by staining with 7-AAD; conditions: concentrations higher than 300 nM
Description: (§4) In order to determine if uptake of peptide 353 was receptor-mediated or receptor-specific in any way, Glu residues were substituted by Phe residues (peptide 361) or Asn residues (peptide 362). The resulting peptides were incubated at 0 to 3000 nM with DU-145 cells for 1 hr. Cells were then harvested and processed for analysis by flow cytometry. […] At 3000 nM, peptides 361 and 362 induced cell death in more than 70% of the cells (determined by staining with 7-AAD); in the case of peptide 361, over 95% of DU-145 cells were positive for 7-AAD; therefore only geometric MFI for concentrations up to 1000 nM are shown in the figure. […] The higher MFI observed for peptide 365 is likely due to the hydrophobicity of both the Phe residues and the dansyl fluorochrome. It was concluded from these experiments that peptide 353 bound to a cell-surface receptor through the glutamate residues.
as §3

[3] = Cell death determined by staining with 7-AAD; conditions: human, DU-145 cells; 3000 nM, 1 hr (FIG. 1C)
Description: as §4, §3

LNCaP cells [4] = test: Peptide uptake by live cells, flow cytometry (geometric MFI); conditions: 3 μM peptide, 1 hr (FIG. 1B)
Description: as §1, §2, §3

LNCaP cells [5] = test: Live cell imaging of nuclear localization (epifluorescence microscopy); conditions: 500 nM, 24 hrs incubation
Description: (§5) Since flow cytometry only gives data regarding total shifts in fluorescence of a population, imaging flow cytometry and live imaging microscopy studies were performed to determine if the NLS augmented nuclear accumulation of the peptides. Imaging flow cytometry was chosen to provide data on intracellular distribution of FITC-labeled peptides. Inverted epifluorescence microscopy was chosen to eliminate inadvertant artifacts that may arise from fixation, such as nuclear translocation. For these studies, the cell-permeable fluorochrome DRAQ5 was used because it readily enters and stains nuclei of viable cells. […] It was not retained in the plasma membrane (FIG. 3A). […] The translocation of peptides to nuclei was complete in the sense that FITC and DRAQ5 fluorescence colocalized in all viable cells, although cytoplasmic fluorescence was visible as well. The FITC distribution was somewhat punctuate in the cytoplasmic portion of cells, leading us to conclude that the peptide may be accumulating within endosomes. […]
(§6) Live Cell Imaging Studies: A Zeiss Axiovert 200 inverted phase-contrast microscope outfitted with epifluorescence was used for live imaging studies. […] Images were acquired and analyzed using Zeiss Axiovision software.

DU-145 cells [6] = test: as above; conditions: 500 nM, 24 hrs incubation
Description: as §5, §6

LNCaP cells [7] = test: Imaging flow cytometry, intracellular distribution of FITC-labeled peptides; conditions: 250 nM, 4 hours
Description: (§7) FIG. 3A: DU-145 and LN-CaP cells were incubated with 250 nM peptides 351 or 353 for 4 hours, counterstained with 5 μM DRAQ 5, then fixed in paraformaldehyde and analyzed by imaging flow cytometry on an Amnis Imaging Cytometer. IDEAS software (Amnis) was used to generate and colorize the images. […] FIG. 3B: Live cell imaging of peptide 353 by DU-145 cells. 500 nM peptide 353 was incubated with DU-145 cells overnight (necessary for imaging purposes). Cells were washed with phenol red-free buffer, counter-stained with DRAQ5 at 10 μM, then examined under a Zeiss Axiovert 200 inverted phase contrast microscope with epifluorescence. The merged image confirms the presence of peptide 353 in nuclei. FIGS. 3C and D: DU-145 cells incubated with peptides 350 and 356, as described for FIG. 3B. Note the absence of FITC fluorescence in nuclei.
as §5
as §3, with “Concentrations ranging from 0 to 3000 nM were assayed.” left out, “At least 10,000 events were acquired using CellQuest Pro software and an Apple Macintosh G4 dual coprocessor computer running OS X 10.3.9.” left out

DU-145 cells [8] = test: as above; conditions: 250 nM, 4 hours
Description: as §7, §5
as §3, with “Concentrations ranging from 0 to 3000 nM were assayed.” left out, “At least 10,000 events were acquired using CellQuest Pro software and an Apple Macintosh G4 dual coprocessor computer running OS X 10.3.9.” left out

[9] = up to 300 nM, 1 hr, 37 ° C. (FIG. 1C), from approximately 40 without peptide
[10] = 300 nM peptide, 4 hr, 37° C., NaN3 0%
[11] = 300 nM peptide, 4 hr, 37° C., NaN3 0.1%
[12] = 300 nM peptide, 4 hr, 37° C., NaN3 1.0%
[13] = 300 nM peptide, 4 hr, NaN3 0.1%
[14] = 300 nM peptide, 4 hr, NaN3 1.0%

Row | Molecule | cell death (DU-145 cells [2]) | Geometric MFI (DU-145 cells [1]; [10]) | Geometric MFI (DU-145 cells [1]; [11]) | Geometric MFI (DU-145 cells [1]; [12]) | % Inhibition (DU-145 cells [1]; 300 nM peptide, 4 hr, NaN3 0%) | % Inhibition (DU-145 cells [1]; [13]) | % Inhibition (DU-145 cells [1]; [14]) | geometric MFI compared among the peptides (FIG. 1A) (DU-145 cells [1]) | effect of NaN3 on uptake (DU-145 cells [1]; 4 hr, 37° C.) | average geometric MFI (DU-145 cells [1]) | other results
1 | NNNAAGRKRKKRT-K-dansyl (NNNAAGRKRKKRTK-dansyl) [Peptide 366] | – | – | – | – | – | – | – | – | – | – | uptake of carboxydansyl peptide on coincubation with peptide 353 (DU-145 cells [1]): without concomitant uptake
2 | C[C@H](NC(=O)[C@H](C)NC(=O)[C@H](Cc1ccccc1)NC(=O)[C@H](Cc1ccccc1)NC(=O)[C@@H](N)Cc1ccccc1)C(=O)NCC(=O)N[C@@H](CCCNC(=N)N)C(=O)N[C@@H](CCCCN)C(=O)N[C@@H](CCCNC(=N)N)C(=O)N[C@@H](CCCCN)C(=O)N[C@@H](CCCCN)C(=O)N[C@@H](CCCNC(=N)N)C(=O)N[C@H](C(=O)N[C@@H](CCCCNC(=O)c1ccc2c(c1)C(=O)OC21c2ccc(O)cc2Oc2cc(O)ccc21)C(=O)O)[C@@H](C)O [Peptide 361, FFFAAGRKRKKRT-FITC] (H-FFFAAGRKRKKRTK(5FAM)-OH) | significant cell death | – | – | – | – | – | – | – | – | – | viability at 1 h, 3 µM [3]: < 50%; Geometric MFI (DU-145 cells [1]; [9]): ~100
3 | EEE-FITC [Peptide 350] | – | 25.6 | 26.4 | 29.7 | 0% | 0% | 0% | lowest values | no effect | – | –
4 | FFFAAGRKRKKRT-K-dansyl (FFFAAGRKRKKRTK-dansyl) [Peptide 365] | – | – | – | – | – | – | – | – | – | – | uptake of carboxydansyl peptide on coincubation with peptide 353 (DU-145 cells [1]): without concomitant uptake
5 | EEEAAKKK-FITC (EEEAAKKK-{FITC′}) [Peptide 352] | – | 58.6 | 61.8 | 47.4 | 0% | 0% | 19.1% | significantly increased | no effect | 186 | –
6 | EEEAAGRKRKKRT-FITC (EEEAAGRKRKKRT-{FITC′}) [Peptide 353, glutamate peptide linked by alanine linker to Oct6 NLS] | not seen | 151 and 151.4 | 155.7 | 114 and 114.4 | 0% | 0% | – | significantly increased | – | 486 | Geometric MFI (LNCaP cells [4]): 1500-2000; uptake of carboxyfluorescein peptide 353 on coincubation (DU-145 cells [1]; 300 nM 353 with 300 nM carboxydansyl peptide 365 or 366, 1 hr (FIG. 1D)): nearly unaltered uptake; Geometric MFI (DU-145 cells [1]; 3 μM peptide, 1 hr (FIG. 1B)): 1500-2000; accumulation in the nuclei (LNCaP cells [5]): accumulated in the nuclei; accumulation in the nuclei (DU-145 cells [6]): accumulated in the nuclei
7 | EEEAA-FITC (not fully specified; carboxyfluorescein label; Synthetically produced Glu peptide (Peptide 351)) | – | 43.8 | 56.9 | 48.4 | 0% | 0% | 0% | lowest values | no effect | – | accumulation in the cells when the plasma membrane was excluded (LNCaP cells [7]): much less accumulation; nuclei positive for DRAQ5 and FITC colocalization (LNCaP cells [7]): ~10%; accumulation in the cells when the plasma membrane was excluded (DU-145 cells [8]): much less accumulation; nuclei positive for DRAQ5 and FITC colocalization (DU-145 cells [8]): ~10%
8 | GRKRKKRT-FITC (GRKRKKRT-{FITC′}) [Peptide 356] | – | 417.6 | 293 | 181 | 0% | 29.8% | – | not nearly as great as that of peptide 353 | – | 325 | –
9 | C[C@H](NC(=O)[C@H](C)NC(=O)[C@H](CC(N)=O)NC(=O)[C@H](CC(N)=O)NC(=O)[C@@H](N)CC(N)=O)C(=O)NCC(=O)N[C@@H](CCCNC(=N)N)C(=O)N[C@@H](CCCCN)C(=O)N[C@@H](CCCNC(=N)N)C(=O)N[C@@H](CCCCN)C(=O)N[C@@H](CCCCN)C(=O)N[C@@H](CCCNC(=N)N)C(=O)N[C@H](C(=O)N[C@@H](CCCCNC(=O)c1ccc2c(c1)C(=O)OC21c2ccc(O)cc2Oc2cc(O)ccc21)C(=O)O)[C@@H](C)O [Peptide 362, NNNAAGRKRKKRT-FITC] (H-NNNAAGRKRKKRTK(5FAM)-OH) | not seen | – | – | – | – | – | – | – | – | – | viability at 1 h, 3 µM [3]: < 50%; Geometric MFI (DU-145 cells [1]; [9]): ~100
10 | EEEAAGRKRKKRT-TATGATCTCCTCCGT-K-FITC (all peptide nucleic acid (PNA), 5' {P353}, 3' {Lys-FITC}) [Peptide 353-PNA] | – | – | – | – | – | – | – | – | – | – | MFI of the cells with increasing concentration (DU-145 cells [1]; 0, 300, and 1000 nM, 18 hr (FIG. 4)): increased the MFI; MFI of small but highly fluorescent population of cells (DU-145 cells [1]; 300 nM, 18 hr (FIG. 4)): greater than 10^3
